The assay deals with Corynebacterium xerosis. Briefly: Quantitative determination of bactericidal activity with regard to microorganisms involved in axillary odors. It is filed as cell-based. To be noted: 24 hours contact, carrier gel pH 7, Log reduction classes. From the text:
The test described here makes possible the quantitative determination of the bactericidal activity of an active principle (i.e.: zinc salicylate/salicylic acid or triclosan) conveyed in an appropriate carrier which is neutral with regard to the bacteria tested. The bacteria studied were microorganisms under optimum growth conditions, namely microorganisms of the Corynebacterium xerosis type (Institut Pasteur Collection No. 5216) cultured on a gradient of tryptocasein soybean agar.
The day before the test, 32 g of tryptocasein soybean broth was placed in a sample tube and incubated at 35° C. The day of the test, 4 g of the test composition was added and the mixture was homogenized using a Vortex render.
A growth control without product was also prepared under the same conditions in order to confirm that the microorganisms are under favorable growth conditions throughout the duration of the test. […]
The colonies on the dishes comprising more than 20 and less than 200 colonies were counted. […]
The following two carrier gels A and B were prepared (amounts expressed as percentages by weight): […]
The bactericidal activity of each of formulations 9 and 10 (see below) with regard to the Corynebacterium xerosis strain was measured and compared to a formulation devoid of active principle.

Structures are written as SMILES.

Regarding `Oc1cc(Cl)ccc1Oc1ccc(Cl)cc1Cl` [Triclosan, 2,4,4′-trichloro-2′-hydroxydiphenyl ether], the “Effectiveness at 24 hours with respect to the gel devoid of active principle” value is given as “Excellent”.

Source of the values: patent publication US20080253972A1, “Aqueous/alcoholic deodorant composition comprising a water-soluble zinc salt and salicylic acid” (priority 2006, published 2008).
